According to PubChem BioAssay (NCI):
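Assay format: 96-well plates, 48-hour exposure. TGI is the concentration that stops growth completely.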

Key:
Experiment in all cases: NCI anticancer screen, dose series, 48 h
[1] = test system: OVCAR-8 ovarian
[2] = test system: NCI-H522 lung
[3] = test system: UACC-62 melanoma
[4] = test system: HL-60(TB) leukemia
[5] = test system: SF-268 CNS
[6] = test system: COLO 205 colon
[7] = test system: SK-MEL-28 melanoma
[8] = test system: EKVX NSCLC
[9] = test system: DU-145 prostate
[10] = test system: U251 CNS

Compound | TGI [1] [µM] | TGI [2] [µM] | TGI [3] [µM] | TGI [4] [µM] | TGI [5] [µM] | TGI [6] [µM] | TGI [7] [µM] | TGI [8] [µM] | TGI [9] [µM] | TGI [10] [µM]
CCOC(=O)c1c2ccccc2n2c(N)c(C(N)=O)nnc12 | 55 | > 100 | 81.1 | > 100 | 56.3 | > 100 | > 100 | > 100 | > 100 | 55.2
CC(C)c1ccc(/C=C2/C=C(c3ccc4ccccc4c3)OC2=O)cc1 | > 100 | 23.5 | > 100 | 39.8 | > 100 | 76.1 | > 100 | > 92.5 | > 100 | > 100
COc1cc2c(cc1OC)C(c1ccccc1CCCCl)=NCC2 | > 100 | > 100 | > 100 | > 100 | > 100 | > 100 | 49.7 | > 100 | > 100 | > 100
CC(C)CC(=O)OC[n+]1ccc(-c2c(COC(=O)NC(C)C)c(COC(=O)NC(C)C)c3n2CCC3)cc1 | > 100 | > 100 | > 100 | > 100 | > 100 | > 100 | > 100 | > 100 | > 100 | > 100
